Measurements as given in ChEMBL document CHEMBL5614392, “Discovery of novel N2-indazole derivatives as phosphodiesterase 4 inhibitors for the treatment of inflammatory bowel disease” (Eur J Med Chem, 2024).
pIC50: −log10 of the molar value. The source made the active and inactive calls. The calls are words filed in the database; no cut-off is given here.

How the values were obtained:
[1] = target: High affinity cGMP-specific 3',5'-cyclic phosphodiesterase 9A (Homo sapiens) (UniProt O76083); assay: Inhibition of PDE9A (unknown origin) using FAM-cyclic-3'5'-AMP as substrate at 10 uM incubated for 1 hrs by fluorescence polarization assay relative to control
Sequence of High affinity cGMP-specific 3',5'-cyclic phosphodiesterase 9A (Homo sapiens) (O76083 whole entry): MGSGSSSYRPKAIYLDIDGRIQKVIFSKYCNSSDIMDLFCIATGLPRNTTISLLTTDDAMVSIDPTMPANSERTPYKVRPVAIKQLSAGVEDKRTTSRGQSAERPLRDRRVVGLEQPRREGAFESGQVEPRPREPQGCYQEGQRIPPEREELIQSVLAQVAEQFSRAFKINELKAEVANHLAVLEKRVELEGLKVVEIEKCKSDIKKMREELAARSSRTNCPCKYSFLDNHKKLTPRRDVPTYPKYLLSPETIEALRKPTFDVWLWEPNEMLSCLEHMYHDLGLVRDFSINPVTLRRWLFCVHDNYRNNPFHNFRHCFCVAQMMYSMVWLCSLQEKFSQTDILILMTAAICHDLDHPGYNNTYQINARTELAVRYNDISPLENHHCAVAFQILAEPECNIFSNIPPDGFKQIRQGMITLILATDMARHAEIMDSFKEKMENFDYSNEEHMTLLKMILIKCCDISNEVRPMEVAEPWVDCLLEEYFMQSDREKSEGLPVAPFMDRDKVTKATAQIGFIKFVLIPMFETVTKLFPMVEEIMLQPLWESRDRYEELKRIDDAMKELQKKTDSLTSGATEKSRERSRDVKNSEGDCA

RAW264.7 [2] = assay: Antiinflammatory activity against mouse RAW264.7 cells assessed as inhibition of LPS-induced TNF-alpha mRNA production at 10 uM incubated for 24 hrs by SYBR green quantitative PCR analysis; type: functional, cell-based
Mus musculus [3] = assay: (§1) Antiinflammatory activity against DSS-induced colitis C57BL/6J mouse model assessed as reduction in inflammatory cell infiltration in colon at 3 to 10 mg/kg, po pretreated with DSS for 10 days followed by twice daily compound administration for 8 days starting from day 3 to day 10 by H and E staining based analysis; type: functional, organism-based; conditions: dose 3-10 mg/kg, time 8.0 day
[4] = target: T1, 3',5'-cyclic-AMP phosphodiesterase 4D (Homo sapiens, UniProt Q08499); assay: Inhibition of PDE4D7 (unknown origin) using FAM-cyclic-3'5'-AMP as substrate at 100 nM incubated for 1 hrs by fluorescence polarization assay relative to control
T1 sequence (Q08499 whole entry): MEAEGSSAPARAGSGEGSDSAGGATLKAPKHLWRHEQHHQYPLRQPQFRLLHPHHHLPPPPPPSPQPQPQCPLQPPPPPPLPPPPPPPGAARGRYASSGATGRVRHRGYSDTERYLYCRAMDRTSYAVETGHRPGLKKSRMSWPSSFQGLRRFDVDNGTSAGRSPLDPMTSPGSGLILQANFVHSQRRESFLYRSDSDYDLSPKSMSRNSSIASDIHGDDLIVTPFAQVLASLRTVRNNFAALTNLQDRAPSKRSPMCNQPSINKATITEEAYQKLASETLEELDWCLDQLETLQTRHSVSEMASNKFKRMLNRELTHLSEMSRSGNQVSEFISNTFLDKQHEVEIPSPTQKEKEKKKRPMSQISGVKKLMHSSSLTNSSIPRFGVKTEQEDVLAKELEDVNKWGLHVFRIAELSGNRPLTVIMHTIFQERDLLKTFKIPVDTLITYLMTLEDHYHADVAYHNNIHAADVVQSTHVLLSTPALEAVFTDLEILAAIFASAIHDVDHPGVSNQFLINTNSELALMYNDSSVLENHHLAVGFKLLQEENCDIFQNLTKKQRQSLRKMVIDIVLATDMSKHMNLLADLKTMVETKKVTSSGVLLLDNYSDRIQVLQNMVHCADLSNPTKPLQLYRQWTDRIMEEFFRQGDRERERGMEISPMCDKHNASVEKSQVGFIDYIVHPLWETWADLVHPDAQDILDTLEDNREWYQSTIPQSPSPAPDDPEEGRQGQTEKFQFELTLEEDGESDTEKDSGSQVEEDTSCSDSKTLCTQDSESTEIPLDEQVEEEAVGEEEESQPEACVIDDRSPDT

[5] = target: T1, 3',5'-cyclic-AMP phosphodiesterase 4D; assay: Inhibition of PDE4D (unknown origin) using FAM-cyclic-3'5'-AMP as substrate incubated for 1 hrs by fluorescence polarization assay
[6] = Selectivity ratio of IC50 for PDE9A (unknown origin) to IC50 for PDE4D (unknown origin)
Mus musculus [7] = assay: as §1, with “crypt structure loss” for “inflammatory cell infiltration”; type: functional, organism-based; conditions: dose 3-10 mg/kg, time 8.0 day
RAW264.7 [8] = assay: Antiinflammatory activity against mouse RAW264.7 cells assessed as inhibition of LPS-induced IL-6 mRNA production at 10 uM incubated for 24 hrs by SYBR green quantitative PCR analysis; type: functional, cell-based
[9] = Oral bioavailability in male C57BL/6J mouse; type: ADME, organism-based; conditions: in vivo
Mus musculus [10] = assay: Antiinflammatory activity against DSS-induced colitis C57BL/6J mouse model assessed as decrease in body weight loss at 10 mg/kg, po pretreated with DSS for 10 days followed by twice daily compound administration for 8 days starting from day 3 to day 10 and measured on day 6; type: functional, organism-based; conditions: time 4.0 day
[11] = target: High affinity 3',5'-cyclic-AMP phosphodiesterase 7A (Homo sapiens) (UniProt Q13946); assay: Inhibition of PDE7A (unknown origin) using FAM-cyclic-3'5'-AMP as substrate at 10 uM incubated for 1 hrs by fluorescence polarization assay relative to control
Sequence of High affinity 3',5'-cyclic-AMP phosphodiesterase 7A (Homo sapiens) (Q13946 whole entry): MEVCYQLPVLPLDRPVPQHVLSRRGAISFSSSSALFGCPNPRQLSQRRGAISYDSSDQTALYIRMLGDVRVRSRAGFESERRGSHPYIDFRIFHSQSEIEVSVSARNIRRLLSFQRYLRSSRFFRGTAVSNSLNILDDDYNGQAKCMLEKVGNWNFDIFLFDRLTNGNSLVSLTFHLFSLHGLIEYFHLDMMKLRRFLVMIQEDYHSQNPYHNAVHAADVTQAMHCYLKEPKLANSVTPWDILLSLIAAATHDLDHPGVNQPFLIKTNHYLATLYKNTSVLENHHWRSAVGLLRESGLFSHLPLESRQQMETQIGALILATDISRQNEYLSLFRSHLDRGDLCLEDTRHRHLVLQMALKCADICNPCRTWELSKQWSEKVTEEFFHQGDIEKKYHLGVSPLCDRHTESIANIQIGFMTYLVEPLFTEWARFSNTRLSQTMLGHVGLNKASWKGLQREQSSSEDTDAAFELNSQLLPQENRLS

[12] = Selectivity ratio of IC50 for PDE7A (unknown origin) to IC50 for PDE4D (unknown origin)
HT-22 = assay: Cytotoxicity against mouse HT-22 cells at 10 to 30 uM; type: toxicity, cell-based; conditions: ht-22, 30 µM, dose 10-30 µM
[13] = target: High affinity cAMP-specific and IBMX-insensitive 3',5'-cyclic phosphodiesterase 8A (Homo sapiens) (UniProt O60658); assay: Inhibition of PDE8A (unknown origin) using FAM-cyclic-3'5'-AMP as substrate at 10 uM incubated for 1 hrs by fluorescence polarization assay relative to control
Sequence of High affinity cAMP-specific and IBMX-insensitive 3',5'-cyclic phosphodiesterase 8A (Homo sapiens) (O60658 whole entry): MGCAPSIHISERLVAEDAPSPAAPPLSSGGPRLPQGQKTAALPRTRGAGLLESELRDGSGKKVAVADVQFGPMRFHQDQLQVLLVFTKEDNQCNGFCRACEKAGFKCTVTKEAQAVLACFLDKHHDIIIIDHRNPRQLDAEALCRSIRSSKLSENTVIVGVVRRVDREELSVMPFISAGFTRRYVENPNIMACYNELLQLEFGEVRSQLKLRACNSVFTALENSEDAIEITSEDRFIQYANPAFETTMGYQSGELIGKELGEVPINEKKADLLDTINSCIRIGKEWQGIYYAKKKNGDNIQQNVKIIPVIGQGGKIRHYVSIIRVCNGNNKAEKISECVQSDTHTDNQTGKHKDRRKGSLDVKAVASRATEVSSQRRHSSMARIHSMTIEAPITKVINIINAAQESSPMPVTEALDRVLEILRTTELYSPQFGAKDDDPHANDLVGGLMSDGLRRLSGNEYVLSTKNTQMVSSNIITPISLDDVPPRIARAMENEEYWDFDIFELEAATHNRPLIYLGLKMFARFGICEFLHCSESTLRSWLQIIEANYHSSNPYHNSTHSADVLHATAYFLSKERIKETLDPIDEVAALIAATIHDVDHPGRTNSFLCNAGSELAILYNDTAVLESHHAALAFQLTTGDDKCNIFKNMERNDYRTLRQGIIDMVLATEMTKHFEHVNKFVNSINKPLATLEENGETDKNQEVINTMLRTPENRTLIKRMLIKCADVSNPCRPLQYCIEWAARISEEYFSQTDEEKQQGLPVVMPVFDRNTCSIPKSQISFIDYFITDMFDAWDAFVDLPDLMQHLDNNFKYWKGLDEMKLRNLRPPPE

Mus musculus [14] = assay: Antiinflammatory activity against DSS-induced colitis C57BL/6J mouse model assessed as decrease in body weight loss at 10 mg/kg, po pretreated with DSS for 10 days followed by twice daily compound administration for 8 days starting from day 3 to day 10 relative to control; type: functional; design: scale not given: the % may be the effect or the level left; conditions: time 8 day
[15] = target: T1, 3',5'-cyclic-AMP phosphodiesterase 4D; assay: Inhibition of PDE4D7 (unknown origin) using FAM-cyclic-3'5'-AMP as substrate incubated for 1 hrs by fluorescence polarization assay
[16] = target: T1, 3',5'-cyclic-AMP phosphodiesterase 4D; assay: Inhibition of PDE4D7 (unknown origin) using FAM-cyclic-3'5'-AMP as substrate at 10 nM incubated for 1 hrs by fluorescence polarization assay relative to control
Mus musculus [17] = assay: Antiinflammatory activity against DSS-induced colitis C57BL/6J mouse model assessed as decrease in body weight loss at 3 mg/kg, po pretreated with DSS for 10 days followed by twice daily compound administration for 8 days starting from day 3 to day 10 relative to control; type: functional; design: scale not given: the % may be the effect or the level left; conditions: time 8 day
[18] = Selectivity ratio of IC50 for PDE8A (unknown origin) to IC50 for PDE4D (unknown origin)
[19] = Acute toxicity in male C57BL/6J mouse assessed as body weight loss at 1 g/Kg, po administered for 14 days; type: organism-based; conditions: in vivo, 1000 mg/kg, 336 h, time 14 day
Mus musculus [20] = assay: Antiinflammatory activity against DSS-induced colitis C57BL/6J mouse model assessed as decrease in disease activity index at 10 mg/kg, po pretreated with DSS for 10 days followed by twice daily compound administration for 8 days starting from day 3 to day 10 relative to control; type: functional, organism-based; conditions: time 8.0 day
[21] = target: cGMP-inhibited 3',5'-cyclic phosphodiesterase 3B (Homo sapiens) (UniProt Q13370); assay: Inhibition of PDE3B (unknown origin) using FAM-cyclic-3'5'-AMP as substrate at 10 uM incubated for 1 hrs by fluorescence polarization assay relative to control
Sequence of cGMP-inhibited 3',5'-cyclic phosphodiesterase 3B (Homo sapiens) (Q13370 whole entry, looked up): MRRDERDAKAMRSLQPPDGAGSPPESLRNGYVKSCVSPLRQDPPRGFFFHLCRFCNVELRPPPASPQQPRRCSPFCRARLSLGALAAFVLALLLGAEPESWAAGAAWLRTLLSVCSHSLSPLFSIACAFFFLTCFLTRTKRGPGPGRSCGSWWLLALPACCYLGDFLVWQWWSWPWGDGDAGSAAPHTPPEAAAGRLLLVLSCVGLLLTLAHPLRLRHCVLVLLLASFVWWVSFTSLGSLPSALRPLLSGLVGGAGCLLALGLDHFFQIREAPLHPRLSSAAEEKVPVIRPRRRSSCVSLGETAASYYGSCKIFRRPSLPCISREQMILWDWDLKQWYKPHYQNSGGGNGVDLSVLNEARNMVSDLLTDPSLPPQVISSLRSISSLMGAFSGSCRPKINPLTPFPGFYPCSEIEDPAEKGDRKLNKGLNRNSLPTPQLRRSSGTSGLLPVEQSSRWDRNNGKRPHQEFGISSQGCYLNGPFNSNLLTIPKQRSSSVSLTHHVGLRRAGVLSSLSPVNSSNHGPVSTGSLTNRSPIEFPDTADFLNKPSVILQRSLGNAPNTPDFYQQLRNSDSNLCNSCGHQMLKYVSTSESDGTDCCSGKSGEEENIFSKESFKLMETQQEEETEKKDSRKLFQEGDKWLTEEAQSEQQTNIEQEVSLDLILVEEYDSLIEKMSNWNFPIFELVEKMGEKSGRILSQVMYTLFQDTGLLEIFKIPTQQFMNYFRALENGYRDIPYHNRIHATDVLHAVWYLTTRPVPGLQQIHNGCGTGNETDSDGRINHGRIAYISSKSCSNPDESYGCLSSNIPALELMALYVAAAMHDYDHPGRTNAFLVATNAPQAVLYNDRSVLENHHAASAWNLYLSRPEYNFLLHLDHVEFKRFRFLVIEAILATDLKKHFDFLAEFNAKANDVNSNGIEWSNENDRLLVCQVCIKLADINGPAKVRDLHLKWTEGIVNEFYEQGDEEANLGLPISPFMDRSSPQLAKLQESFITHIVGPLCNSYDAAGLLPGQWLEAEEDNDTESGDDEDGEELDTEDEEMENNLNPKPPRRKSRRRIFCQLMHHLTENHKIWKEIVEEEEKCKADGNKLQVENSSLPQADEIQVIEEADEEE

Mus musculus [22] = assay: as §1, with “lamina propria breakdown” for “inflammatory cell infiltration”; type: functional, organism-based; conditions: dose 3-10 mg/kg, time 8.0 day
Mus musculus [23] = assay: Antiinflammatory activity against DSS-induced colitis C57BL/6J mouse model assessed as increase in colon length at 3 to 10 mg/kg, po pretreated with DSS for 10 days followed by twice daily compound administration for 8 days starting from day 3 to day 10; type: functional, organism-based; conditions: dose 3-10 mg/kg, time 8.0 day
Mus musculus [24] = assay: Antiinflammatory activity against DSS-induced colitis C57BL/6J mouse model assessed as reduction in mucosal damage in colon at 3 to 10 mg/kg, po pretreated with DSS for 10 days followed by twice daily compound administration for 8 days starting from day 3 to day 10 by H and E staining based analysis; type: functional, organism-based; conditions: dose 3-10 mg/kg, time 8.0 day
RAW264.7 [25] = assay: Antiinflammatory activity against mouse RAW264.7 cells assessed as inhibition of LPS-induced iNOS mRNA production at 10 uM incubated for 24 hrs by SYBR green quantitative PCR analysis; type: functional, cell-based
[26] = Selectivity ratio of IC50 for PDE3B (unknown origin) to IC50 for PDE4D (unknown origin)
[27] = Toxicity in ketamine/xylazine-induced anesthetic male C57BL/6J mouse model assessed as emetogenic potential by measuring reduction in anesthesia duration at 5 to 10 mg/kg, po preadministered with compound for 15 mins followed by ketamine/xylazine administration; type: organism-based; conditions: in vivo, 0.25 h, dose 5-10 mg/kg
[28] = target: 3',5'-cyclic-AMP phosphodiesterase 4B (Homo sapiens, UniProt Q07343); assay: Inhibition of PDE4B (unknown origin) using FAM-cyclic-3'5'-AMP as substrate incubated for 1 hrs by fluorescence polarization assay
Sequence of 3',5'-cyclic-AMP phosphodiesterase 4B (Q07343 whole entry): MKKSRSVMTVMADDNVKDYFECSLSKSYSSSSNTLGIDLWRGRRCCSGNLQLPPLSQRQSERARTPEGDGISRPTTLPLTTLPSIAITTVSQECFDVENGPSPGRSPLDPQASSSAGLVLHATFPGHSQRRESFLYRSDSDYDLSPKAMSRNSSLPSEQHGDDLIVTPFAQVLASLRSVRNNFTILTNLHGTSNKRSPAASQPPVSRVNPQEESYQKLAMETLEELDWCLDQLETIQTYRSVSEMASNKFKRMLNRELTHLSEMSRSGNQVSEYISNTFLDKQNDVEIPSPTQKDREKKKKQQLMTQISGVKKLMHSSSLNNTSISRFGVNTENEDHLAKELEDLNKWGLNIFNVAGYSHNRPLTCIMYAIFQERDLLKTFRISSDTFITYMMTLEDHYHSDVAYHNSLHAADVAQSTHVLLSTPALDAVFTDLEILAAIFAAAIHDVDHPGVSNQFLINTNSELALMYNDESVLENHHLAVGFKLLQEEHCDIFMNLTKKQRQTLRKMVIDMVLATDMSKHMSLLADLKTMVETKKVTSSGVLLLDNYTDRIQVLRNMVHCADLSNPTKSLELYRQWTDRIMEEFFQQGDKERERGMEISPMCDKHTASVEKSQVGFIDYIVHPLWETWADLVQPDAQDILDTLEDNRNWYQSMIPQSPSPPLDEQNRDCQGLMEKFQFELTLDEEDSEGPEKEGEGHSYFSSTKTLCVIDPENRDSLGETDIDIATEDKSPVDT

[29] = Acute toxicity in male C57BL/6J mouse assessed as animal death at 1 g/Kg, po administered for 14 days; type: organism-based; conditions: in vivo, 1000 mg/kg, 336 h, time 14 day

COc1cc(-c2ccc(OC(F)F)c3nn(C4CC4)cc23)cc(OC)c1OC
inhibition [1]: 7%
Activity (RAW264.7 [2]): Active
Activity (Mus musculus [3]): Active
inhibition [4]: 86%
pIC50 [5]: 7.18
Ratio IC50 [6]: > 156
Activity (Mus musculus [7]): Active
Activity (RAW264.7 [8]): Active
bioavailability [9]: 5%
Activity (Mus musculus [10]): Active
inhibition [11]: 14%
Ratio IC50 [12]: > 156
Activity (HT-22): Non-Toxic
inhibition [13]: 12%
Activity (Mus musculus [14]): 4.9%
pIC50 [15]: 7.98
inhibition [16]: 42%
Activity (Mus musculus [17]): 16.7%
Ratio IC50 [18]: > 156
Activity [19]: Non-Toxic
Activity (Mus musculus [20]): Active
inhibition [21]: 6%
Activity (Mus musculus [22]): Active
Activity (Mus musculus [23]): Active
Activity (Mus musculus [24]): Active
Activity (RAW264.7 [25]): Active
Ratio IC50 [26]: > 156
Activity [27]: Non-Toxic
pIC50 [28]: 7.19
Activity [29]: Non-Toxic
